Measurements from patent US7291642B2, “Bradykinin-B1 antagonists, process for their preparation and their use as medicaments” (Boehringer Ingelheim International GmbH, priority 2004, dated 2007).
Structures can show the parent of a compound that is named as a salt.

biological target: T1, hBK1 receptor (Homo sapiens, UniProt P46663); experiment: hBK1 receptor binding; conditions: membranes of CHO cells expressing the hBK1 receptor; radioligand 0.5 to 1.0 nM kallidin (DesArg10, Leu9), [3,4-prolyl-3,43H(N)]; 60 minutes, room temperature
T1 construct: expressed in transfected cells; host or cells: CHO cells (membrane homogenate)
T1 sequence (P46663 1-353): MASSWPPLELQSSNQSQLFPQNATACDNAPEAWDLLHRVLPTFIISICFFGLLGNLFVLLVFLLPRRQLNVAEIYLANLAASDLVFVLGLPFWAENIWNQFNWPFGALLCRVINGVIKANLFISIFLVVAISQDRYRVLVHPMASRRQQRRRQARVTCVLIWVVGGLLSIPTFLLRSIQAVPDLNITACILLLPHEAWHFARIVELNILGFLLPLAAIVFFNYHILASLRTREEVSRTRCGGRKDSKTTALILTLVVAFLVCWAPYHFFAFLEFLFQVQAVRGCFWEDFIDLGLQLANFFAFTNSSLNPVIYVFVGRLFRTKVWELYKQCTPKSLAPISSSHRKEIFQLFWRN
Procedure: CHO cells expressing the hBK1 receptor are cultivated in Dulbecco's modified medium. The medium from confluent cultures is removed and the cells are washed with PBS buffer, scraped off and isolated by centrifugation. The cells are then homogenized in suspension and the homogenate is centrifuged and resuspended. The protein content is determined and the membrane preparation obtained in this manner is then frozen at −80° C.
After thawing, 200 μl of the homogenate (50 to 100 μg of proteins/assay) are incubated at room temperature with 0.5 to 1.0 nM of kallidin (DesArg10, Leu9), [3,4-prolyl-3,43H(N)] and increasing concentrations of the test substance in a total volume of 250 μl for 60 minutes. The incubation is terminated by rapid filtration through GF/B glass fibre filters which had been pretreated with polyethyleneimine (0.3%). The protein-bound radioactivity is measured in a TopCount NXT. Non-specific binding is defined as radioactivity bound in the presence of 1.0 μM of […]. The concentration/binding curve is analysed using a computer-assisted nonlinear curve fitting. The Ki which corresponds to the test substance is determined using the data obtained in this manner.

| SMILES | Ki [nM] |
| --- | --- |
| CN(CCc1ccc(C2=NCCN2)cc1)C(=O)C1CCCN(S(=O)(=O)c2cccc(Cl)c2Cl)C1 (centres unmarked) [C, 1-[(2,3-dichlorobenzenesulphonyl)piperidin-3-yl]-N-({2-[4-(4,5-dihydro-1H-imidazol-2-yl)phenyl]ethyl}methyl)carboxamide] | 957 |
| CN(CCN1CCN(CCc2ccc(C3=NCCN3)cc2)C1=O)S(=O)(=O)c1cccc(Cl)c1Cl [E, 2,3-dichloro-N-[2-(3-{2-[4-(4,5-dihydro-1H-imidazol-2-yl)phenyl]ethyl}-2-oxoimidazolidin-1-yl)ethyl]-N-methylbenzenesulphonamide hydrochloride] | 1520 |

Compounds with a lower Ki, results first:

| Ki [nM] | SMILES |
| --- | --- |
| 170 | Cc1cc(S(=O)(=O)N(C)CCNC(=O)CCc2ccc(C3=NCCN3)cc2)c(C)cc1Cl [D, N-{2-[(4-chloro-2,5-dimethylbenzenesulphonyl)methylamino]ethyl}-3-[4-(4,5-dihydro-1H-imidazol-2-yl)phenyl]propionamide] |
| 62 | CC(C)N(CCCC(=O)N(C)CCc1ccc(C2=NCCN2)cc1)S(=O)(=O)c1cccc(Cl)c1Cl [A, 4-[(2,3-dichlorobenzenesulphonyl)isopropylamino]-N-{2-[4-(4,5-dihydro-1H-imidazol-2-yl)phenyl]ethyl}-N-methylbutyramide] |
| 26 | Cc1cc(S(=O)(=O)N2CCCCC2CCC(=O)N(C)CCc2ccc(C3=NCCN3)cc2)c(C)cc1Cl (centres unmarked) [B, 3-[1-(4-chloro-2,5-dimethylbenzenesulphonyl)piperidin-2-yl]-N-{2-[4-(4,5-dihydro-1H-imidazol-2-yl)phenyl]ethyl}-N-methylpropionamide hydrochloride] |
